Measurements as given in patent US20260159815A1, “METHODS OF CULTURING CARDIAC CELLS AND USE OF CELLS FOR DISEASE MODELING” (Technion Research & Development Foundation Limited, priority 2023, published 2026).

Tested on: iPSC-derived cardiomyocytes
Experiment: RT-qPCR of selected sarcomere genes (TNNI1, TNNI3)
Type: cell-based, human
Conditions: Torin1 10 nM and 25 nM, maturation media groups (3 mM glucose)
Description: Gene expression (RT-qPCR): RNA was extracted from cells using […], then reverse transcribed to cDNA with the Iscript™ cDNA Synthesis Kit (Bio-Rad, US). The quantitative polymerase chain reaction was performed using the Lightcycler® 480 SYBR Green I Master (syber green) (Roche, Switzerland).
Cardiomyocyte maturation: hiPSCs were differentiated into cardiomyocytes as follows. On day 0, the hiPSC medium was replaced with CDM3 media supplemented with 6 μM CHIR99021 (R&D Systems, US) to induce differentiation toward a mesodermal fate. After 48 hours the same medium was use, supplemented with 2 μM of Wnt-C59 (Selleck Chemicals, US). After 48 hours, the medium was replaced with RPMI-B27-insulin (Thermo Fisher Scientific, US). On day 10, maturation process was started with the replacement of the medium with maturation media. This process continued for 14 days during which Torin1 was added only in the first 7 days. At the end of the process, several criteria were tested to characterize the maturation of the CMs and the other supporting cells. […]

CCC(=O)N1CCN(c2ccc(-n3c(=O)ccc4cnc5ccc(-c6cnc7ccccc7c6)cc5c43)cc2C(F)(F)F)CC1 [Torin1]
TNNI3 mRNA expression: trended toward increased expression of TNNI3 mRNA expression in a dose-dependent manner
